Columns and labels:
Calf DNA polymerase α = Calf DNA polymerase α (Bos taurus, UniProt A0AAA9THK8); assay: DNA polymerase assay, calf pol α; assay type: biochemical
From the text: Pol α was purified from calf thymus by immuno-affinity column chromatography as described by Tamai et al.. Recombinant rat pol β was purified from E. coli JMpβ5 as described by Date et al.. The human pol γ catalytic gene was cloned into pFastBac. Histidine-tagged enzyme was expressed using the BAC-TO-BAC HT Baculovirus Expression System according to the supplier's manual (LIFE TECHNOLOGIES, MD, USA) and purified using ProBoundresin (Invitrogen Japan, Tokyo, Japan). Human pols δ and ε were purified by the nuclear fractionation of human peripheral blood cancer cells (Molt-4) using the second subunit of pols δ and ε-conjugated affinity column chromatography, respectively. Recombinant human pols η and ι tagged with His6 at their C-terminal were expressed in SF9 insect cells using the baculovirus expression system, and were purified as described previously. A truncated form of pol κ (i.e., hDINB1DC) with 6 x His-tags attached at the C-terminal was overproduced using the BAC-to-BAC Baculovirus Expression System kit (GIBCO BRL, MD, USA) and purified as described previously. Recombinant human His-pol λ was overexpressed and purified according to a method described previously. Fish pol δ was purified from the testis of cherry salmon (Oncorhynchus masou). Pol I (α-like) from a higher plant, cauliflower inflorescence, was purified according to the methods outlined by Sakaguchi et al.. The Klenow fragment of pol I from E. coli was purchased from Worthington Biochemical Corp. (Freehold, NJ, USA). Taq pol, T4 pol, T7 RNA polymerase and T4 polynucleotide kinase were purchased from Takara (Kyoto, Japan). Bovine pancreas deoxyribonuclease I (DNase I) was obtained from Stratagene Cloning Systems (La Jolla, CA, USA).
The reaction mixtures for pol α, pol β, fish pol δ, plant pol I (α-like) and prokaryotic pols were described previously, and those for pol γ, and pols δ and ε were as described by Umeda et al. and Ogawa et al., respectively. The reaction mixtures for pols η, ι and κ were the same as for pol α, and the reaction mixture for pol λ was the same as that for pol β.
For pols, poly(dA)/oligo(dT)12-18 (A/T = 2/1) and dTTP were used as the DNA template-primer and nucleotide (i.e., dNTP) substrate, respectively. KA-A analogues (i.e., compounds 1–12) were dissolved in distilled dimethyl sulfoxide (DMSO) at various concentrations and sonicated for 30 sec. Aliquots of 4 μL of sonicated samples were mixed with 16 μL of each enzyme (final amount 0.05 units) in 50 mM Tris-HCl (pH 7.5) containing 1 mM dithiothreitol, 50% glycerol and 0.1 mM EDTA, and kept at 0 °C for 10 min. […] Activity without the inhibitor was considered 100%, and the remaining activity at each concentration of the inhibitor was determined relative to this value. […]

Human DNA polymerase ε = target: T1, Human DNA polymerase ε (Homo sapiens, UniProt Q07864); assay: DNA polymerase assay, human pol ε; assay type: biochemical
T1 construct: Human pols δ and ε were purified by the nuclear fractionation of human peripheral blood cancer cells (Molt-4); endogenous in cells; host or cells: Molt-4
From the text: (§1) Pol α was purified from calf thymus by immuno-affinity column chromatography as described by Tamai et al.. Recombinant rat pol β was purified from E. coli JMpβ5 as described by Date et al.. The human pol γ catalytic gene was cloned into pFastBac. Histidine-tagged enzyme was expressed using the BAC-TO-BAC HT Baculovirus Expression System according to the supplier's manual (LIFE TECHNOLOGIES, MD, USA) and purified using ProBoundresin (Invitrogen Japan, Tokyo, Japan). Human pols δ and ε were purified by the nuclear fractionation of human peripheral blood cancer cells (Molt-4) using the second subunit of pols δ and ε-conjugated affinity column chromatography, respectively. Recombinant human pols η and ι tagged with His6 at their C-terminal were expressed in SF9 insect cells using the baculovirus expression system, and were purified as described previously. A truncated form of pol κ (i.e., hDINB1DC) with 6 x His-tags attached at the C-terminal was overproduced using the BAC-to-BAC Baculovirus Expression System kit (GIBCO BRL, MD, USA) and purified as described previously. […]
(§2) For pols, poly(dA)/oligo(dT)12-18 (A/T = 2/1) and dTTP were used as the DNA template-primer and nucleotide (i.e., dNTP) substrate, respectively. […] Activity without the inhibitor was considered 100%, and the remaining activity at each concentration of the inhibitor was determined relative to this value. […]

Human DNA polymerase λ = target: T2, Human DNA polymerase λ (Homo sapiens, UniProt Q9UGP5); assay: DNA polymerase assay, human pol λ; assay type: biochemical
T2 construct: His tag; made in house; host or cells: E. coli (from the title of the cited method)
T2 sequence (Q9UGP5 1-575): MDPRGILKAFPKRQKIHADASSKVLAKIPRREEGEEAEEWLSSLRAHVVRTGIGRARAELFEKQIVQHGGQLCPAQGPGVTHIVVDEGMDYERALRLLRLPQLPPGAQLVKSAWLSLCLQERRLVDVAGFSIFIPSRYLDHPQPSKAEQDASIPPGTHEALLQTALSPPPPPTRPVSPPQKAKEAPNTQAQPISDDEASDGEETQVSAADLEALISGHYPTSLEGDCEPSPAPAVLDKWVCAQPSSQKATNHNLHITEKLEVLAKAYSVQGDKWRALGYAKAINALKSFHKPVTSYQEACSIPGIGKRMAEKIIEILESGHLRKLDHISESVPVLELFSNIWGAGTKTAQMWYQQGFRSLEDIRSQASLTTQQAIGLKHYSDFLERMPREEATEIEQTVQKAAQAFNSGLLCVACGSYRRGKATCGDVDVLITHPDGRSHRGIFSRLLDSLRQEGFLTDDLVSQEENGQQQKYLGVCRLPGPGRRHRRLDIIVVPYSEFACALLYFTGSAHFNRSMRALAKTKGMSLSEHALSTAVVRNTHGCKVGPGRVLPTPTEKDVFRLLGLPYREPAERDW
From the text: as §1, §2

[1] = target: T3, E. coli DNA polymerase I (Klenow fragment) (Escherichia coli, UniProt P00582); assay: DNA polymerase assay, Klenow fragment; assay type: biochemical
T3 construct: The Klenow fragment of pol I from E. coli; purchased Worthington Biochemical Corp. (Freehold, NJ, USA)
From the text: as §1, §2

[2] = target: T4, Bovine Deoxyribonuclease I (Bos taurus, UniProt P00639); assay: Deoxyribonuclease I assay; assay type: biochemical
T4 construct: Bovine pancreas deoxyribonuclease I (DNase I) was obtained from Stratagene Cloning Systems; purchased Stratagene Cloning Systems (La Jolla, CA, USA); host or cells: bovine pancreas
From the text: as §1
The primase activity of calf pol α, the activities of T7 RNA polymerase, T4 polynucleotide kinase and bovine DNase I were measured in standard assays according to the manufacturer's specifications as described by Tamiya-Koizumi et al., Nakayama et al., Soltis et al., and Lu and Sakaguchi, respectively.

[3] = tested on: double-stranded DNA (dsDNA); assay: Thermal transition (Tm) of double-stranded DNA; assay type: binding; details: compound 11 at 200 μM; data not shown
Procedure: The Tm of dsDNA with an excess amount of compound 11 (200 μM) was measured using a spectrophotometer equipped with a thermoelectric cell holder.

Sequence of Calf DNA polymerase α (Q58D13 whole entry): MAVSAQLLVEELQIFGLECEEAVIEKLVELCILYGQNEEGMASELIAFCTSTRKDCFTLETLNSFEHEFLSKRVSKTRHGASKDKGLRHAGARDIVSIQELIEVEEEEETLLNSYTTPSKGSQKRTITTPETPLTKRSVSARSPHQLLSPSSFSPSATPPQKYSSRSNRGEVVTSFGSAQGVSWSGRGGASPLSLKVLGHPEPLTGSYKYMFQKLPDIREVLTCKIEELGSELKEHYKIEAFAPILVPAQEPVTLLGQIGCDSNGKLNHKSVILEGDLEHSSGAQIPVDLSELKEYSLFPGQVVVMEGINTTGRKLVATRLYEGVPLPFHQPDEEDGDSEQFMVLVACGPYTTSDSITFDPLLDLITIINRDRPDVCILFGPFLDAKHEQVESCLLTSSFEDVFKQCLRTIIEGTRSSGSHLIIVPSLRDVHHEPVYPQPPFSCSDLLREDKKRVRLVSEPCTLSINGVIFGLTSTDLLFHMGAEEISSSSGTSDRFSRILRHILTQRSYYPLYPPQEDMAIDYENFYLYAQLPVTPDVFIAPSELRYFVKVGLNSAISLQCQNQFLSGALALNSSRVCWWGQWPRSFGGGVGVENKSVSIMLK
Sequence of Calf DNA polymerase α (A0AAA9THK8 entry or part of it): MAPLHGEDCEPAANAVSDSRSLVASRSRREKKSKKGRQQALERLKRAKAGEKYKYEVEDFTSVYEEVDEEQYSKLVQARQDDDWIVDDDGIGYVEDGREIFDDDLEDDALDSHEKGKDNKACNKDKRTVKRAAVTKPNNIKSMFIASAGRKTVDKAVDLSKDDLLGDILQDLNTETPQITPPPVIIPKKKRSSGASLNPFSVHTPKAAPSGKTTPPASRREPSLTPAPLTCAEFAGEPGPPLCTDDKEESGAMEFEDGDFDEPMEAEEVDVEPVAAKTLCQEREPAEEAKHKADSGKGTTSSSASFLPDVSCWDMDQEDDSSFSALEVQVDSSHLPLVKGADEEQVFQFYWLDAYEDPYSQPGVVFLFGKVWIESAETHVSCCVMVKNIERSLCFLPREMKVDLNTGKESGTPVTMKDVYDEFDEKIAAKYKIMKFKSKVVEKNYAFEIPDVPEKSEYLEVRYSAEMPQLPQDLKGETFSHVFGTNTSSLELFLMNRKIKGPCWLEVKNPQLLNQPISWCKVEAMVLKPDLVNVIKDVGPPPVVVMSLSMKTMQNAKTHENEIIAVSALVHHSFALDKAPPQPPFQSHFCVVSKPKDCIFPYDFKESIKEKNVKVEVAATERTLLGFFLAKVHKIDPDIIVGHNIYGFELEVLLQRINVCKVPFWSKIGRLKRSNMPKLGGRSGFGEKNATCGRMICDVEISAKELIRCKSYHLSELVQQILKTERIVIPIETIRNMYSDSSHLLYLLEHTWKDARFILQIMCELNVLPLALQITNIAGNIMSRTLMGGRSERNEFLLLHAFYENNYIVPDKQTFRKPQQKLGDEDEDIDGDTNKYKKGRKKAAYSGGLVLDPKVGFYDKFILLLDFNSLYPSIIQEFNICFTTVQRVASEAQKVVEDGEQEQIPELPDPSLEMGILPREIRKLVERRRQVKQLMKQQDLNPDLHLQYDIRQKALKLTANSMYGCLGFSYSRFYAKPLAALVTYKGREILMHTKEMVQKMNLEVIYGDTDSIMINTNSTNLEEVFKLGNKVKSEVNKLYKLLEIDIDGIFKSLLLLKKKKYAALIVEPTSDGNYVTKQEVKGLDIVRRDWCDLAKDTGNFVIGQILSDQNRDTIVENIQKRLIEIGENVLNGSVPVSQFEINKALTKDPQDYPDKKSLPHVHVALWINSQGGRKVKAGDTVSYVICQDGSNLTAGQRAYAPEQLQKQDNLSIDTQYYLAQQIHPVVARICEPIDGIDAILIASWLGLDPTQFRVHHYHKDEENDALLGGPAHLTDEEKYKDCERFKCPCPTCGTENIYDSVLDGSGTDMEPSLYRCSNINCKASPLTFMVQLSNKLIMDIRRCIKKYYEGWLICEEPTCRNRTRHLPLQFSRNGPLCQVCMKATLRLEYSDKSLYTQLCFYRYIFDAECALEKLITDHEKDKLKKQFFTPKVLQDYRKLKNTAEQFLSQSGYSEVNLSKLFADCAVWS
Sequence of Calf DNA polymerase α (A0JNF4 entry or part of it, further chain): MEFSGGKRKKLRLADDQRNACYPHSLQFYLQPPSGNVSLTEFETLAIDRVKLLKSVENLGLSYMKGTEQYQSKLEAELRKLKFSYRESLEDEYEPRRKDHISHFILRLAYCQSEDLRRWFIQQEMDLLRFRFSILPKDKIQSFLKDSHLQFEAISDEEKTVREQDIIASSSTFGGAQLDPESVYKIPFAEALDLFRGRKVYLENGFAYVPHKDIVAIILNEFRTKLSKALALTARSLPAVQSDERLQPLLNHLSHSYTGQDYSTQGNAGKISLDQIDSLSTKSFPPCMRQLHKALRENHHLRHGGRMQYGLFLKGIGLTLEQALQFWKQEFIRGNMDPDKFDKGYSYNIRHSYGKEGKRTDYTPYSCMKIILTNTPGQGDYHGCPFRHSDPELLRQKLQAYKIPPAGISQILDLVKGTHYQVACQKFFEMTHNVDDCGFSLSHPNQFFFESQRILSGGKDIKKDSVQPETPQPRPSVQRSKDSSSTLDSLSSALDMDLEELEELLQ
Sequence of Calf DNA polymerase α (A0A3Q1MF00 entry or part of it, further chain): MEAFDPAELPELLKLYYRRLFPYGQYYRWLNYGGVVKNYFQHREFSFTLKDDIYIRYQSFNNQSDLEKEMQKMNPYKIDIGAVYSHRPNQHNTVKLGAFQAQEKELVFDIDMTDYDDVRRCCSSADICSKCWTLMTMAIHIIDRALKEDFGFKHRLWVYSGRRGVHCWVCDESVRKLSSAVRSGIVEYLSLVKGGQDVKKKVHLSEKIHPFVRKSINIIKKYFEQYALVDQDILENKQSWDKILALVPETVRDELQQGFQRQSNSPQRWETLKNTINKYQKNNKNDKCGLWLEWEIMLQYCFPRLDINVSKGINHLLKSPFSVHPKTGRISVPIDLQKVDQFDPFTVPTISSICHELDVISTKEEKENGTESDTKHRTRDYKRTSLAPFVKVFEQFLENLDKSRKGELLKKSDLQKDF
T3 sequence (P00582 324-928): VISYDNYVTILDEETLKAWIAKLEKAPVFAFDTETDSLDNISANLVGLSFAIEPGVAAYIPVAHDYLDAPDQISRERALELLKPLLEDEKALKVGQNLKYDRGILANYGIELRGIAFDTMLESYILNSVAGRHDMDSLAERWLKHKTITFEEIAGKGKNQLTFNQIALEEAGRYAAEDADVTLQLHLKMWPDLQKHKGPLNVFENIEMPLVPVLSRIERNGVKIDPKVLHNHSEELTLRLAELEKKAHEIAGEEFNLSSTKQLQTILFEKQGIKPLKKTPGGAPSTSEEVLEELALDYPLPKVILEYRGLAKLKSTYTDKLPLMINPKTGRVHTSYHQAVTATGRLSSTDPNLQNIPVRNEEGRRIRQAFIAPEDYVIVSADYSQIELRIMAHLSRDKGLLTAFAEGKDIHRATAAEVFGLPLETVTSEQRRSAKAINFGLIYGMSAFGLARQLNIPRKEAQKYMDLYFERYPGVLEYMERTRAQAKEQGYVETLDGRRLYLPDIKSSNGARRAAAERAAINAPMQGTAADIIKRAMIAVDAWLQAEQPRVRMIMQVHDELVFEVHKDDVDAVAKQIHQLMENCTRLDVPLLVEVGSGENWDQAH
T4 sequence (P00639 23-282): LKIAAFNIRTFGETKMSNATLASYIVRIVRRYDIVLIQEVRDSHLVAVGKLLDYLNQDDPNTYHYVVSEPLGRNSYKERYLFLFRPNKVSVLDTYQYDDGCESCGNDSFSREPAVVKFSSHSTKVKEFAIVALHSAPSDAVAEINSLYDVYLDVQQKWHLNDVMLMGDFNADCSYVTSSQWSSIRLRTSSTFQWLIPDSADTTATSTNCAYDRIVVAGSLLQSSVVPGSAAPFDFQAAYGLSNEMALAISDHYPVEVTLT

## CC1=CC[C@H]2C(C)(C)CCC[C@]2(C)[C@H]1CCCCCCCCCCCCCCCCC(=O)O (relative stereo) [compound 11, (1S*,4aS*,8aS*)-17-(1,4,4a,5,6,7,8,8a-octahydro-2,5,5,8a-tetramethylnaphthalen-1-yl)heptadecanoic acid]
Calf DNA polymerase α; 10 and 100 μM of compound (Figure 2A)
  Inhibitory effect on pol α compared with KA-A: strongest inhibitory effect
Calf DNA polymerase α; poly(dA)/oligo(dT)12-18 and dTTP, 0.05 units enzyme, read-out: IC50 values
  IC50: 4.21 ± 0.21 µM
Human DNA polymerase ε
  IC50: 3.22 ± 0.16 µM
Human DNA polymerase λ
  IC50: 4.67 ± 0.23 µM
Human DNA polymerase λ; with respect to both the DNA template-primer and the dNTP substrate
  Kinetic mode of inhibition: competitive
[1]
  IC50: > 200 µM
[2]
  IC50: > 200 µM
[3]
  Thermal transition of Tm of dsDNA: no thermal transition of Tm was observed

— article PMC6253949, “The Inhibitory Action of Kohamaic Acid A Derivatives on Mammalian DNA Polymerase β” (Molecules, 2008)
